Reference: PMC9848300, “Discovery of novel enasidenib analogues targeting inhibition of mutant isocitrate dehydrogenase 2 as antileukaemic agents” (Journal of Enzyme Inhibition and Medicinal Chemistry, 2023)

Key:
Assay type in all cases: cell-based
[1] = tested on: SR; assay: NCI 60 antitumor screening (single dose / five doses); details: Homo sapiens; SR (leukaemia), single dose 10 μM; read-out: Growth inhibition percentage (GI %)
[2] = tested on: HOP-92; assay: as above; details: Homo sapiens; HOP-92 (non-small cell lung cancer), single dose 10 μM; read-out: Growth inhibition percentage (GI %)
[3] = tested on: A549/ATCC; assay: NCI 60 antitumor screening (single dose); details: Homo sapiens; A549/ATCC (non-small cell lung cancer), single dose 10 μM; read-out: Growth inhibition percentage (GI %)
How it was run: (§1)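 NCI-60 one-dose screen. Dose: 10 μM. Lines: 60 human tumour lines, nine tissue types. Output: GI% = 100 − G%.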

[4] = tested on: CAKI-1; assay: NCI 60 antitumor screening (single dose); details: Homo sapiens; CAKI-1 (renal cancer), single dose 10 μM; read-out: Growth inhibition percentage (GI %)
How it was run: as §1

[5] = tested on: HCC-2998; assay: NCI 60 antitumor screening (single dose); details: Homo sapiens; HCC-2998 (colon cancer), single dose 10 μM; read-out: Growth inhibition percentage (GI %)
How it was run: (§2)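 Single-dose NCI protocol, 10 μM, triplicate. Readout G%; GI% = 100 − G%.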

[6] = tested on: HOP-62; assay: NCI 60 antitumor screening (single dose); details: Homo sapiens; HOP-62 (non-small cell lung cancer), single dose 10 μM; read-out: Growth inhibition percentage (GI %)
How it was run: as §2

[7] = tested on: HS 578T; assay: NCI 60 antitumor screening (single dose); details: Homo sapiens; HS 578T (breast cancer), single dose 10 μM; read-out: Growth inhibition percentage (GI %)
How it was run: as §1

[8] = tested on: KM 12; assay: NCI 60 antitumor screening (single dose); details: Homo sapiens, KM12; KM 12 (colon cancer), single dose 10 μM; read-out: Growth inhibition percentage (GI %)
How it was run: as §1

[9] = tested on: M14; assay: NCI 60 antitumor screening (single dose); details: Homo sapiens; M14 (melanoma), single dose 10 μM; read-out: Growth inhibition percentage (GI %)
How it was run: as §1

[10] = tested on: MCF7; assay: NCI 60 antitumor screening (single dose); details: Homo sapiens; MCF7 (breast cancer), single dose 10 μM; read-out: Growth inhibition percentage (GI %)
How it was run: as §1

[11] = tested on: NCI-H226; assay: NCI 60 antitumor screening (single dose); details: Homo sapiens; NCI-H226 (non-small cell lung cancer), single dose 10 μM; read-out: Growth inhibition percentage (GI %)
How it was run: as §1

[12] = tested on: NCI-H23; assay: NCI 60 antitumor screening (single dose); details: Homo sapiens; NCI-H23 (non-small cell lung cancer), single dose 10 μM; read-out: Growth inhibition percentage (GI %)
How it was run: as §2

[13] = tested on: NCI-H322M; assay: NCI 60 antitumor screening (single dose); details: Homo sapiens; NCI-H322M (non-small cell lung cancer), single dose 10 μM; read-out: Growth inhibition percentage (GI %)
How it was run: as §1

[14] = tested on: NCI-H460; assay: NCI 60 antitumor screening (single dose); details: Homo sapiens; NCI-H460 (non-small cell lung cancer), single dose 10 μM; read-out: Growth inhibition percentage (GI %)
How it was run: as §2

[15] = tested on: NCI-H522; assay: NCI 60 antitumor screening (single dose); details: Homo sapiens; NCI-H522 (non-small cell lung cancer), single dose 10 μM; read-out: Growth inhibition percentage (GI %)
How it was run: as §2

[16] = tested on: OVCAR-3; assay: NCI 60 antitumor screening (single dose); details: Homo sapiens; OVCAR-3 (ovarian cancer), single dose 10 μM; read-out: Growth inhibition percentage (GI %)
How it was run: as §1

[17] = tested on: OVCAR-4; assay: NCI 60 antitumor screening (single dose); details: Homo sapiens; OVCAR-4 (ovarian cancer), single dose 10 μM; read-out: Growth inhibition percentage (GI %)
How it was run: as §1

[18] = tested on: OVCAR-5; assay: NCI 60 antitumor screening (single dose); details: Homo sapiens; OVCAR-5 (ovarian cancer), single dose 10 μM; read-out: Growth inhibition percentage (GI %)
How it was run: as §2

[19] = tested on: OVCAR-8; assay: NCI 60 antitumor screening (single dose); details: Homo sapiens; OVCAR-8 (ovarian cancer), single dose 10 μM; read-out: Growth inhibition percentage (GI %)
How it was run: as §1

[20] = tested on: PC-3; assay: NCI 60 antitumor screening (single dose); details: Homo sapiens; PC-3 (prostate cancer), single dose 10 μM; read-out: Growth inhibition percentage (GI %)
How it was run: as §1

[21] = tested on: SF-268; assay: NCI 60 antitumor screening (single dose); details: Homo sapiens; SF-268 (CNS cancer), single dose 10 μM; read-out: Growth inhibition percentage (GI %)
How it was run: as §2

[22] = tested on: SK-OV-3; assay: NCI 60 antitumor screening (single dose); details: Homo sapiens; SK-OV-3 (ovarian cancer), single dose 10 μM; read-out: Growth inhibition percentage (GI %)
How it was run: as §2

[23] = tested on: SNB-19; assay: NCI 60 antitumor screening (single dose); details: Homo sapiens; SNB-19 (CNS cancer), single dose 10 μM; read-out: Growth inhibition percentage (GI %)
How it was run: as §1

[24] = tested on: TK-10; assay: NCI 60 antitumor screening (single dose); details: Homo sapiens; TK-10 (renal cancer), single dose 10 μM; read-out: Growth inhibition percentage (GI %)
How it was run: as §1

[25] = tested on: U251; assay: NCI 60 antitumor screening (single dose); details: Homo sapiens, U-251; U251 (CNS cancer), single dose 10 μM; read-out: Growth inhibition percentage (GI %)
How it was run: as §2

[26] = tested on: MDA-MB-435; assay: NCI 60 antitumor screening (single dose / five doses); details: Homo sapiens; MDA-MB-435 (melanoma), single dose 10 μM; read-out: Growth inhibition percentage (GI %)
[27] = tested on: RXF 393; assay: as above; details: Homo sapiens; RXF 393 (renal cancer), single dose 10 μM; read-out: Growth inhibition percentage (GI %)

| Compound | inhibition at 10 µM [1] [%] | inhibition at 10 µM [2] [%] | inhibition at 10 µM [3] [%] | inhibition at 10 µM [4] [%] | inhibition at 10 µM [5] [%] | inhibition at 10 µM [6] [%] | inhibition at 10 µM [7] [%] | inhibition at 10 µM [8] [%] | inhibition at 10 µM [9] [%] | inhibition at 10 µM [10] [%] | inhibition at 10 µM [11] [%] | inhibition at 10 µM [12] [%] | inhibition at 10 µM [13] [%] | inhibition at 10 µM [14] [%] | inhibition at 10 µM [15] [%] | inhibition at 10 µM [16] [%] | inhibition at 10 µM [17] [%] | inhibition at 10 µM [18] [%] | inhibition at 10 µM [19] [%] | inhibition at 10 µM [20] [%] | also measured |
| --- | --- | --- | --- | --- | --- | --- | --- | --- | --- | --- | --- | --- | --- | --- | --- | --- | --- | --- | --- | --- | --- |
| Fc1cccc(Cl)c1/C=N/Nc1nc(N/N=C/c2c(F)cccc2Cl)nc(N2CCOCC2)n1 [compound 6l, 2,4-Bis[(E)-2-[(2-Chloro-6-fluorophenyl)methylidene]hydrazin-1-yl]-6-(morpholin-4-yl)-1,3,5-triazine] | 27.8 | 27 | 21 | 17.5 | 5.25 | 6.23 | 5 | 18.9 | 27.8 | 29 | 20.4 | 27.2 | 16.2 | 23.1 | 14.4 | 22.9 | 32.8 | -12.4 | 15.5 | 19.3 | inhibition at 10 µM [21]: 11.2%; inhibition at 10 µM [22]: 7.59%; inhibition at 10 µM [23]: 12.9%; inhibition at 10 µM [24]: -16.5%; inhibition at 10 µM [25]: 11.8%; inhibition at 10 µM [26]: 19.4%; inhibition at 10 µM [27]: 17.8% |
| Oc1ccccc1/C=N/Nc1nc(N/N=C/c2ccccc2O)nc(N2CCCCC2)n1 [compound 7a, 2-[(1e)-(2-{4-[(E)-2-[(2-Hydroxyphenyl)methylidene]hydrazin-1-yl]-6-(piperidin-1-yl)-1,3,5-triazin-2-yl}hydrazin-1-ylidene)methyl] phenol] | 60.2 | 21.6 | 52.2 | 24.5 | 60.4 | 44.2 | 23.4 | 52.5 | 53.6 | 64.3 | 18.2 | 44.2 | 41.1 | 60.5 | 52.5 | 80.8 | 70.9 | 28.4 | 50.4 | 55.2 | inhibition at 10 µM [21]: 45.7%; inhibition at 10 µM [22]: 12%; inhibition at 10 µM [23]: 44%; inhibition at 10 µM [24]: 2.29%; inhibition at 10 µM [25]: 49.6%; inhibition at 10 µM [26]: 30.9%; inhibition at 10 µM [27]: 17% |
| Brc1ccccc1/C=N/Nc1nc(N/N=C/c2ccccc2Br)nc(N2CCCCC2)n1 [compound 7b, 2,4-Bis[(E)-2-[(2-Bromophenyl)methylidene]hydrazin-1-yl]-6-(piperidin-1-yl)-1,3,5-triazine] | -1.34 | -33 | -2.25 | 3.19 | -7.41 | 1.14 | -5.25 | 2 | -4.12 | 13.2 | 10.9 | 4.71 | 3.65 | 0.96 | 6.02 | -6.1 | 0.53 | 0.1 | -1.21 | 5.07 | inhibition at 10 µM [21]: -1.64%; inhibition at 10 µM [22]: -0.76%; inhibition at 10 µM [23]: 3.76%; inhibition at 10 µM [24]: -16.5%; inhibition at 10 µM [25]: -2.15%; inhibition at 10 µM [26]: -1.23%; inhibition at 10 µM [27]: 2.13% |
| Clc1cccc(/C=N/Nc2nc(N/N=C/c3cccc(Cl)c3)nc(N3CCCCC3)n2)c1 [compound 7d, 2,4-Bis[(E)-2-[(3-Chlorophenyl)methylidene]hydrazin-1-yl]-6-(piperidin-1-yl)-1,3,5-triazine] | 25.4 | -7.89 | 13.7 | 7.63 | -8.18 | -4.1 | -4.65 | 8.95 | 4.75 | 16.9 | 18 | 2.24 | -1.33 | 3.48 | 11.7 | 8.59 | 9.83 | -10.4 | 10.8 | 24 | inhibition at 10 µM [21]: 8.03%; inhibition at 10 µM [22]: -9.25%; inhibition at 10 µM [23]: 1.37%; inhibition at 10 µM [24]: -6.48%; inhibition at 10 µM [25]: 8.35%; inhibition at 10 µM [26]: 9.61%; inhibition at 10 µM [27]: 6.56% |
